Assay results reported in PubChem BioAssay (NCI).
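Interpolation was linear, between the two tested concentrations surrounding the appropriate level; five concentrations were tested over 48 hours in 96-well plates. GI50 marks 50% less growth. TGI is the concentration that stops growth completely.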

Tests used:
Assay in all cases: inhibition of tumour cell growth, NCI panel, 48 h
M14 melanoma = test system: M14 melanoma
HCT-116 colon = test system: HCT-116 colon
HT29 colon = test system: HT29 colon
NCI-H460 lung = test system: NCI-H460 lung
SK-MEL-2 melanoma = test system: SK-MEL-2 melanoma
MDA-MB-231 breast = test system: MDA-MB-231 breast
MDA-MB-435 = test system: MDA-MB-435
ACHN renal = test system: ACHN renal
HS 578T breast = test system: HS 578T breast
U251 CNS = test system: U251 CNS
SF-268 CNS = test system: SF-268 CNS
SNB-19 CNS = test system: SNB-19 CNS
HL-60(TB) leukemia = test system: HL-60(TB) leukemia
MOLT-4 leukemia = test system: MOLT-4 leukemia
K-562 leukemia = test system: K-562 leukemia
NCI-H226 lung = test system: NCI-H226 lung
COLO 205 colon = test system: COLO 205 colon
CAKI-1 renal = test system: CAKI-1 renal
HOP-62 NSCLC = test system: HOP-62 NSCLC
UACC-62 melanoma = test system: UACC-62 melanoma
OVCAR-8 ovarian = test system: OVCAR-8 ovarian
IGROV1 ovarian = test system: IGROV1 ovarian
A498 renal = test system: A498 renal
SF-539 CNS = test system: SF-539 CNS
786-0 renal = test system: 786-0 renal
HCC-2998 colon = test system: HCC-2998 colon
SK-MEL-28 melanoma = test system: SK-MEL-28 melanoma
RXF 393 renal = test system: RXF 393 renal
T-47D breast = test system: T-47D breast
PC-3 prostate = test system: PC-3 prostate
SR leukemia = test system: SR leukemia
NCI-H23 lung = test system: NCI-H23 lung
KM12 colon = test system: KM12 colon
OVCAR-3 ovarian = test system: OVCAR-3 ovarian
OVCAR-5 ovarian = test system: OVCAR-5 ovarian
LOX IMVI melanoma = test system: LOX IMVI melanoma
SN12C renal = test system: SN12C renal
SW-620 colon = test system: SW-620 colon
OVCAR-4 ovarian = test system: OVCAR-4 ovarian
RPMI-8226 leukemia = test system: RPMI-8226 leukemia
BT-549 breast = test system: BT-549 breast
SNB-75 CNS = test system: SNB-75 CNS
HOP-92 NSCLC = test system: HOP-92 NSCLC
HCT-15 colon = test system: HCT-15 colon
UACC-257 melanoma = test system: UACC-257 melanoma
TK-10 renal = test system: TK-10 renal
MCF7 breast = test system: MCF7 breast
SK-OV-3 ovarian = test system: SK-OV-3 ovarian
SK-MEL-5 melanoma = test system: SK-MEL-5 melanoma
NCI/ADR-RES ovarian = test system: NCI/ADR-RES ovarian
A549 NSCLC = test system: A549 NSCLC
DU-145 prostate = test system: DU-145 prostate
CCRF-CEM leukemia = test system: CCRF-CEM leukemia
NCI-H522 lung = test system: NCI-H522 lung
MALME-3M melanoma = test system: MALME-3M melanoma
SF-295 CNS = test system: SF-295 CNS
UO-31 renal = test system: UO-31 renal

`O=C1NC(=NCCc2cccs2)S/C1=C\c1ccc2ncccc2c1` gave a GI50 (M14 melanoma) of 12.1 µM, a TGI (M14 melanoma) greater than 25 µM and a GI50 (HCT-116 colon) of 5.92 µM. For the same compound, the TGI (HCT-116 colon) was greater than 25 µM, the GI50 (HT29 colon) was 11.8 µM and the TGI (HT29 colon) was greater than 25 µM. For the same compound, the GI50 (NCI-H460 lung) was 10.3 µM, the TGI (NCI-H460 lung) was greater than 25 µM and the GI50 (SK-MEL-2 melanoma) was greater than 18.8 µM. For the same compound, the TGI (SK-MEL-2 melanoma) was greater than 25 µM, the GI50 (MDA-MB-231 breast) was 19.7 µM and the TGI (MDA-MB-231 breast) was greater than 25 µM. The GI50 (MDA-MB-435) was 6.97 µM, the TGI (MDA-MB-435) was greater than 25 µM and the GI50 (ACHN renal) was 8.33 µM. The TGI (ACHN renal) was greater than 25 µM, the GI50 (HS 578T breast) was 6.57 µM and the TGI (HS 578T breast) was greater than 21.8 µM. The GI50 (U251 CNS) was 8.79 µM, the TGI (U251 CNS) was greater than 25 µM and the GI50 (SF-268 CNS) was 10 µM. The TGI (SF-268 CNS) was greater than 25 µM, the GI50 (SNB-19 CNS) was 9.64 µM and the TGI (SNB-19 CNS) was greater than 25 µM. It also gave a GI50 (HL-60(TB) leukemia) of 9.17 µM, a TGI (HL-60(TB) leukemia) greater than 25 µM and a GI50 (MOLT-4 leukemia) of 12.6 µM. It also gave a TGI (MOLT-4 leukemia) greater than 25 µM, a GI50 (K-562 leukemia) of 8.85 µM and a TGI (K-562 leukemia) greater than 25 µM. For the same compound, the GI50 (NCI-H226 lung) was 8.21 µM, the TGI (NCI-H226 lung) was greater than 25 µM and the GI50 (COLO 205 colon) was 7.79 µM. For the same compound, the TGI (COLO 205 colon) was greater than 25 µM, the GI50 (CAKI-1 renal) was 9.7 µM and the TGI (CAKI-1 renal) was greater than 25 µM. For the same compound, the GI50 (HOP-62 NSCLC) was 11.8 µM, the TGI (HOP-62 NSCLC) was greater than 25 µM and the GI50 (UACC-62 melanoma) was 9.51 µM. The TGI (UACC-62 melanoma) was greater than 25 µM, the GI50 (OVCAR-8 ovarian) was 10.3 µM and the TGI (OVCAR-8 ovarian) was greater than 25 µM. The GI50 (IGROV1 ovarian) was 9.1 µM, the TGI (IGROV1 ovarian) was greater than 25 µM and the GI50 (A498 renal) was 7.59 µM. The TGI (A498 renal) was greater than 22.3 µM, the GI50 (SF-539 CNS) was 7.54 µM and the TGI (SF-539 CNS) was greater than 25 µM. For the same compound, the GI50 (786-0 renal) was 14.5 µM, the TGI (786-0 renal) was greater than 25 µM and the GI50 (HCC-2998 colon) was 22.1 µM. The TGI (HCC-2998 colon) was greater than 25 µM, the GI50 (SK-MEL-28 melanoma) was 24.4 µM and the TGI (SK-MEL-28 melanoma) was greater than 25 µM. It also gave a GI50 (RXF 393 renal) of 7.68 µM, a TGI (RXF 393 renal) greater than 25 µM and a GI50 (T-47D breast) of 10.1 µM. It also gave a TGI (T-47D breast) greater than 25 µM, a GI50 (PC-3 prostate) greater than 20 µM and a TGI (PC-3 prostate) greater than 25 µM. It also gave a GI50 (SR leukemia) of 2.23 µM, a TGI (SR leukemia) of 14.2 µM and a GI50 (NCI-H23 lung) of 9.54 µM. For the same compound, the TGI (NCI-H23 lung) was greater than 25 µM, the GI50 (KM12 colon) was 10.8 µM and the TGI (KM12 colon) was greater than 25 µM. For the same compound, the GI50 (OVCAR-3 ovarian) was 10.1 µM, the TGI (OVCAR-3 ovarian) was greater than 25 µM and the GI50 (OVCAR-5 ovarian) was greater than 20.4 µM. It also gave a TGI (OVCAR-5 ovarian) greater than 25 µM, a GI50 (LOX IMVI melanoma) of 8.12 µM and a TGI (LOX IMVI melanoma) greater than 25 µM. For the same compound, the GI50 (SN12C renal) was 8.78 µM, the TGI (SN12C renal) was greater than 25 µM and the GI50 (SW-620 colon) was 8.2 µM. It also gave a TGI (SW-620 colon) greater than 25 µM, a GI50 (OVCAR-4 ovarian) of 13.2 µM and a TGI (OVCAR-4 ovarian) greater than 25 µM. The GI50 (RPMI-8226 leukemia) was 11.6 µM, the TGI (RPMI-8226 leukemia) was greater than 25 µM and the GI50 (BT-549 breast) was 6.39 µM. The TGI (BT-549 breast) was 22 µM, the GI50 (SNB-75 CNS) was 5.91 µM and the TGI (SNB-75 CNS) was greater than 22.6 µM. It also gave a GI50 (HOP-92 NSCLC) of 4.7 µM, a TGI (HOP-92 NSCLC) greater than 25 µM and a GI50 (HCT-15 colon) of 8.02 µM. It also gave a TGI (HCT-15 colon) greater than 25 µM, a GI50 (UACC-257 melanoma) greater than 19.3 µM and a TGI (UACC-257 melanoma) greater than 25 µM. The GI50 (TK-10 renal) was 7.77 µM, the TGI (TK-10 renal) was greater than 25 µM and the GI50 (MCF7 breast) was 8.28 µM. It also gave a TGI (MCF7 breast) greater than 25 µM, a GI50 (SK-OV-3 ovarian) of 9.36 µM and a TGI (SK-OV-3 ovarian) greater than 25 µM. It also gave a GI50 (SK-MEL-5 melanoma) of 8.5 µM, a TGI (SK-MEL-5 melanoma) greater than 25 µM and a GI50 (NCI/ADR-RES ovarian) of 15.3 µM. For the same compound, the TGI (NCI/ADR-RES ovarian) was greater than 25 µM, the GI50 (A549 NSCLC) was 8.83 µM and the TGI (A549 NSCLC) was greater than 25 µM. The GI50 (DU-145 prostate) was 11.2 µM, the TGI (DU-145 prostate) was greater than 25 µM and the GI50 (CCRF-CEM leukemia) was 10.2 µM. For the same compound, the TGI (CCRF-CEM leukemia) was greater than 25 µM, the GI50 (NCI-H522 lung) was 7.33 µM and the TGI (NCI-H522 lung) was greater than 25 µM. For the same compound, the GI50 (MALME-3M melanoma) was greater than 25 µM, the TGI (MALME-3M melanoma) was greater than 25 µM and the GI50 (SF-295 CNS) was 9.56 µM. For the same compound, the TGI (SF-295 CNS) was greater than 25 µM, the GI50 (UO-31 renal) was 11.4 µM and the TGI (UO-31 renal) was greater than 25 µM.
